Data taken from PubChem BioAssay AID1963428 (Molecular Pharmacology Branch, DTP, NCI, 2024).
“And” between values parts separate entries of the source, which are not always exact repeats. Identical values can stand only once.

Test system: 171881-019-R-J1-PDC complex spheroid growth, % test/control
Assay: Anticancer human tumor 171881-019-R-J1-PDC patient-derived invasive breast carcinoma cell line growth inhibition [Asc]
Settings: for viability, T/C: stronger effect = lower value; active = viability on the fitted dose curve at most 10% of control; inactive = the rest
Procedure, shortened: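 Complex spheroids combining tumor cells with HUVEC endothelial cells and human MSCs, at 37 degrees C, 5% CO2; agents tested alone or combined, half-log dilutions from at or near clinical Cmax, or 10 microM if Cmax unknown.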

[1] = curve of first compound, second compound 0.1 µM
[2] = curve of first compound, second compound 0.316 µM
[3] = curve of first compound, second compound 1 µM
[4] = curve of first compound, second compound 3.16 µM
[5] = curve of first compound, second compound 10 µM
[6] = second compound 0.1 µM, first compound 0.00316 µM
[7] = second compound 0.1 µM, first compound 0.01 µM
[8] = second compound 0.1 µM, first compound 0.0316 µM
[9] = second compound 0.1 µM, first compound 0.1 µM
[10] = second compound 0.1 µM, first compound 0.316 µM
[11] = second compound 0.1 µM, first compound 1 µM
[12] = second compound 0.316 µM, first compound 0.00316 µM
[13] = second compound 0.316 µM, first compound 0.01 µM
[14] = second compound 0.316 µM, first compound 0.0316 µM
[15] = second compound 0.316 µM, first compound 0.1 µM
[16] = second compound 0.316 µM, first compound 0.316 µM
[17] = second compound 0.316 µM, first compound 1 µM
[18] = second compound 1 µM, first compound 0.00316 µM
[19] = second compound 1 µM, first compound 0.01 µM
[20] = second compound 1 µM, first compound 0.0316 µM
[21] = second compound 1 µM, first compound 0.1 µM
[22] = second compound 1 µM, first compound 0.316 µM
[23] = second compound 1 µM, first compound 1 µM
[24] = second compound 3.16 µM, first compound 0.00316 µM
[25] = second compound 3.16 µM, first compound 0.01 µM
[26] = second compound 3.16 µM, first compound 0.0316 µM
[27] = second compound 3.16 µM, first compound 0.1 µM
[28] = second compound 3.16 µM, first compound 0.316 µM
[29] = second compound 3.16 µM, first compound 1 µM
[30] = second compound 10 µM, first compound 0.00316 µM
[31] = second compound 10 µM, first compound 0.01 µM
[32] = second compound 10 µM, first compound 0.0316 µM
[33] = second compound 10 µM, first compound 0.1 µM
[34] = second compound 10 µM, first compound 0.316 µM
[35] = second compound 10 µM, first compound 1 µM
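Throughout, for viability, T/C: spheroids exposed to compounds for 7 days.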

CCN1CCN(Cc2ccc(Nc3ncc(F)c(-c4cc(F)c5nc(C)n(C(C)C)c5c4)n3)nc2)CC1 + Cc1c(S(C)(=O)=O)c(-c2cc(F)cc(N3CCN(c4ccc(NS(=O)(=O)c5ccc(NC(CCN6CCC(C(=O)OCCCP(=O)(O)O)CC6)CSc6ccccc6)c(S(=O)(=O)C(F)(F)F)c5)cc4)CC3)c2)c(-c2ccc(Cl)cc2)n1C(C)C
> 1000 nM: IC50 [1] | IC50 [2] | IC50 [3] | IC50 [4] | IC50 [5]
inactive: viability, T/C [6] 105% | viability, T/C [7] 118% | viability, T/C [8] 119% | viability, T/C [9] 111% | viability, T/C [10] 118% | viability, T/C [11] 146% | viability, T/C [12] 142% | viability, T/C [13] 145% | viability, T/C [14] 149% | viability, T/C [15] 139% | viability, T/C [16] 178% | viability, T/C [17] 188% | viability, T/C [18] 125% | viability, T/C [19] 149% | viability, T/C [20] 157% | viability, T/C [21] 172% | viability, T/C [22] 188% | viability, T/C [23] 200% | viability, T/C [24] 191% | viability, T/C [25] 190% | viability, T/C [26] 189% | viability, T/C [27] 184% | viability, T/C [28] 188% | viability, T/C [29] 185% | viability, T/C [30] 199% | viability, T/C [31] 215% | viability, T/C [32] 213% | viability, T/C [33] 192% | viability, T/C [34] 187% | viability, T/C [35] 166%

O=C(c1ccc(F)c(F)c1Nc1ccc(I)cc1F)N1CC(O)([C@@H]2CCCCN2)C1
inactive: viability, T/C (compound 0.00316 µM) 86.7% and 86.1% and 88.1% | viability, T/C (compound 0.01 µM) 104% and 85.4% and 111% | viability, T/C (compound 0.0316 µM) 121% and 111% and 153% | viability, T/C (compound 0.1 µM) 150% and 136% and 218% | viability, T/C (compound 0.316 µM) 65.5% and 51.4% and 121% | viability, T/C (compound 1 µM) 32.6% and 32.5% and 58.2%
545 nM and 344 nM and > 1000 nM: IC50 (curve of compound)

COc1c(OCCCN2CCOCC2)ccc2c3n(c(=NC(=O)c4cnc(N)nc4)nc12)CCN3 + Cc1c(S(C)(=O)=O)c(-c2cc(F)cc(N3CCN(c4ccc(NS(=O)(=O)c5ccc(NC(CCN6CCC(C(=O)OCCCP(=O)(O)O)CC6)CSc6ccccc6)c(S(=O)(=O)C(F)(F)F)c5)cc4)CC3)c2)c(-c2ccc(Cl)cc2)n1C(C)C
active: viability, T/C [9] 7.28% | viability, T/C [10] 1.11% | viability, T/C [11] 0.49% | viability, T/C [15] 5.34% | viability, T/C [16] 0.77% | viability, T/C [17] 0.4% | viability, T/C [21] 3.92% | viability, T/C [22] 0.8% | viability, T/C [23] 0.9% | viability, T/C [26] 8.79% | viability, T/C [27] 1.69% | viability, T/C [28] 0.26% | viability, T/C [29] 0.49% | viability, T/C [32] 9.29% | viability, T/C [33] 0.84% | viability, T/C [34] 0.24% | viability, T/C [35] 1.51%
4.99 nM: IC50 [4]
13.8 nM: IC50 [2]
inactive: viability, T/C [6] 148% | viability, T/C [7] 91.5% | viability, T/C [8] 30.1% | viability, T/C [12] 129% | viability, T/C [13] 62.6% | viability, T/C [14] 17% | viability, T/C [18] 102% | viability, T/C [19] 46.9% | viability, T/C [20] 12.7% | viability, T/C [24] 64.2% | viability, T/C [25] 28.2% | viability, T/C [30] 63.7% | viability, T/C [31] 21.6%
4.6 nM: IC50 [5]
9.37 nM: IC50 [3]
21.8 nM: IC50 [1]

Cc1nc(N2CCC3(CC2)COC(C)C3N)c(CO)nc1Sc1ccnc(N)c1Cl (stereo unspecified)
> 3000 nM: IC50 (curve of compound)
inactive: viability, T/C (compound 0.00949 µM) 123% and 94.5% and 97.3% | viability, T/C (compound 0.03 µM) 137% and 100% and 92% | viability, T/C (compound 0.0949 µM) 214% and 125% and 157% | viability, T/C (compound 0.3 µM) 268% and 160% and 188% | viability, T/C (compound 0.949 µM) 225% and 150% and 152% | viability, T/C (compound 3 µM) 168% and 117% (2×)

C=CC(=O)N1CCN(c2nc(=O)n(-c3c(C)ccnc3C(C)C)c3nc(-c4c(O)cccc4F)c(F)cc23)C(C)C1 (stereo unspecified)
> 10000 nM: IC50 (curve of compound)
inactive: viability, T/C (compound 0.0316 µM) 94.2% and 93.7% and 99.4% | viability, T/C (compound 0.1 µM) 95.4% and 109% and 106% | viability, T/C (compound 0.316 µM) 90.9% and 107% and 99.9% | viability, T/C (compound 1 µM) 89.2% and 92.1% and 88.4% | viability, T/C (compound 3.16 µM) 80.5% and 93.2% and 83.7% | viability, T/C (compound 10 µM) 71.1% and 78.1% and 83.2%
